According to ChEMBL document CHEMBL4138158, “2-Arylbenzofurans from Artocarpus lakoocha and methyl ether analogs with potent cholinesterase inhibitory activity” (Eur J Med Chem, 2018):
Active and inactive are the calls of the source. No cut-off for these calls is given here.

Columns and labels:
Cholinesterase [1] = target: T1, Cholinesterase (Homo sapiens, UniProt P06276); assay: Potency index, ratio of galantamine IC50 to compound IC50 for inhibition of BChE (unknown origin)
Cholinesterase [2] = target: T1, Cholinesterase; assay: Inhibition of BChE (unknown origin) using thiocholine as substrate preincubated for 15 mins followed by substrate addition measured after 5 mins by Ellman's method
[3] = target: Acetylcholinesterase (Electrophorus electricus) (UniProt O42275); assay: Inhibition of electric eel AChE at 0.1 mg/ml using acetylthiocholine as substrate preincubated for 15 mins followed by substrate addition measured after 5 mins by Ellman's method
[4] = Selectivity ratio of IC50 for BChE (unknown origin) to IC50 for electric eel AChE
Acetylcholinesterase = Acetylcholinesterase (Electrophorus electricus, UniProt O42275); assay: Inhibition of electric eel AChE using acetylthiocholine as substrate preincubated for 15 mins followed by substrate addition measured after 5 mins by Ellman's method
[5] = target: Acetylcholinesterase (Electrophorus electricus) (UniProt O42275); assay: Potency index, ratio of galantamine IC50 to compound IC50 for inhibition of electric eel AChE
Cholinesterase [6] = target: T1, Cholinesterase; assay: Inhibition of BChE (unknown origin) at 0.1 mg/ml using thiocholine as substrate preincubated for 15 mins followed by substrate addition measured after 5 mins by Ellman's method

Acetylcholinesterase (Electrophorus electricus), sequence (O42275 24-633 limits assumed): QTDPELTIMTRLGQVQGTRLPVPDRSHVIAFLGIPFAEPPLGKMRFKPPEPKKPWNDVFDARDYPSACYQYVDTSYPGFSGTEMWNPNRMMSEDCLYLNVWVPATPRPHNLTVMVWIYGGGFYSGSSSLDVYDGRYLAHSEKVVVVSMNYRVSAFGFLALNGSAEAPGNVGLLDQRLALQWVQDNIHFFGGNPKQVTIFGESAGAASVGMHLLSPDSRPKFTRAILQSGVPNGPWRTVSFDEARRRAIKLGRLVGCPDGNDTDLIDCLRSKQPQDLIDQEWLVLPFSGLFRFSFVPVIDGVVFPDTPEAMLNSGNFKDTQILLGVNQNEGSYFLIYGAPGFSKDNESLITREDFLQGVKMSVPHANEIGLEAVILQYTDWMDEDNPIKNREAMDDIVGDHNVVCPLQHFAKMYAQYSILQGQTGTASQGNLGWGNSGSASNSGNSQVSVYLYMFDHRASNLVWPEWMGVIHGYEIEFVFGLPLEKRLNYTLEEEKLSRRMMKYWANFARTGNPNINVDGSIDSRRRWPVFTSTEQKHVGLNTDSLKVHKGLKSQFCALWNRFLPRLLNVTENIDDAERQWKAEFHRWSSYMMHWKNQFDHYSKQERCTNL
Acetylcholinesterase, sequence (O42275 whole entry): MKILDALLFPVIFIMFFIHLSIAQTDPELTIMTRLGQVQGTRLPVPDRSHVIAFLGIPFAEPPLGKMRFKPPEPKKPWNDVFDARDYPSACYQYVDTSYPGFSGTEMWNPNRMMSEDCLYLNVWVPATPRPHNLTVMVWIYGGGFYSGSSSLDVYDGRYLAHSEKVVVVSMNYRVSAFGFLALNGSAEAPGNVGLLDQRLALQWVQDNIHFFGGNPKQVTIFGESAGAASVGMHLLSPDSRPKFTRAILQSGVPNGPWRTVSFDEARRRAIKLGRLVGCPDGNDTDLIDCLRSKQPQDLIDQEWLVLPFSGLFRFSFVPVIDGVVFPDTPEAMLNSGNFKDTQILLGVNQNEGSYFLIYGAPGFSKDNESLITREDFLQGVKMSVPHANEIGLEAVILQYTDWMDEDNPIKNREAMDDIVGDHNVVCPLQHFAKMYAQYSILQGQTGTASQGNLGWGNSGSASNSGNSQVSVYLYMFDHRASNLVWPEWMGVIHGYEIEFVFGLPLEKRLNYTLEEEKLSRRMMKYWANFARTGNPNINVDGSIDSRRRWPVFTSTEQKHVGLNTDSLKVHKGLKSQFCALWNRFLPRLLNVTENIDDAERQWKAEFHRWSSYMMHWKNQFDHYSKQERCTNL
T1 sequence (P06276 whole entry): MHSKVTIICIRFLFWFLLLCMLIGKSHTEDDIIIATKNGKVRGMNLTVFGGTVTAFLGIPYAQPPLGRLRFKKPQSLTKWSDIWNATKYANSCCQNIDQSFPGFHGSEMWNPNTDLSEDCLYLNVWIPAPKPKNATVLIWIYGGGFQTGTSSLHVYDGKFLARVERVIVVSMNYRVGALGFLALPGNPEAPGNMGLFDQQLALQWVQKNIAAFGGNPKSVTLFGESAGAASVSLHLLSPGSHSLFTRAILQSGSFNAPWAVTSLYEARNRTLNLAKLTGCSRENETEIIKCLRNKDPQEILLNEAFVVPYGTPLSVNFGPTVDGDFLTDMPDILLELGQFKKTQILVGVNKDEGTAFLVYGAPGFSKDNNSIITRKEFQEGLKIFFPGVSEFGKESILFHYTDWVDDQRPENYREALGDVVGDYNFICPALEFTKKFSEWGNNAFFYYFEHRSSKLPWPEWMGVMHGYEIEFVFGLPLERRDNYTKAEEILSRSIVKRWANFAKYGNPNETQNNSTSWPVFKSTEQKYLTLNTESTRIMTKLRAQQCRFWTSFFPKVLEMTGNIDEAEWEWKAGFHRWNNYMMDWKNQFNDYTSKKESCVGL

SMILES | Ratio IC50 (Cholinesterase [1]) | IC50 (Cholinesterase [2]) | inhibition [3] | Ratio IC50 [4] | IC50 (Acetylcholinesterase) | Ratio IC50 [5] | inhibition (Cholinesterase [6])
COc1ccc2cc(-c3c(CC=C(C)C)c(O)cc(O)c3C/C=C(\C)CCC=C(C)C)oc2c1 | < 10 | 990 nM | inactive | – | – | – | –
CC(C)=CCCC1(C)C=Cc2c(O)cc(-c3cc4ccc(O)cc4o3)c(CC=C(C)C)c2O1 (centres undefined) | – | 14900 nM | – | 17.2 | 870 nM | 2 | –
COc1ccc2cc(-c3cc(O)c4c(c3CC=C(C)C)OC(C)(CCC=C(C)C)C=C4)oc2c1 (centres undefined) | < 10 | 1110 nM | inactive | – | – | – | –
COc1cc(-c2cc3ccc(O)cc3o2)c(CC=C(C)C)c2c1C=CC(C)(CCC=C(C)C)O2 (centres undefined) | < 10 | 310 nM | inactive | – | – | – | –
CC(C)=CCCC1(C)C=Cc2c(O)cc(-c3cc4c(O)cc(O)cc4o3)c(CC=C(C)C)c2O1 (centres undefined) | – | 8860 nM | – | 8.05 | 1100 nM | 2 | –
CC(C)=CCc1c(-c2cc3ccc(O)cc3o2)cc2c3c1O[C@@]1(C)CCC([C@@H]3C1)C(C)(C)O2 (some centres undefined) | – | 1560 nM | inactive | – | – | – | –
COc1cc(O)c(C/C=C(\C)CCC=C(C)C)c(-c2cc3ccc(O)cc3o2)c1CC=C(C)C | < 10 | 510 nM | inactive | – | – | – | –
Oc1cc(O)cc(/C=C/c2ccc(O)cc2O)c1 [OXYRESVERATROL] | – | 2950 nM | inactive | – | – | – | –
COc1cc(O)c(CC=C(C)C)c(-c2cc3ccc(O)c(C/C=C(\C)CCC=C(C)C)c3o2)c1 | – | 47200 nM | – | 0.76 | 61900 nM | – | –
CC(C)=CCC/C(C)=C/Cc1c(O)cc(O)c(CC=C(C)C)c1-c1cc2ccc(O)cc2o1 [LAKOOCHIN B] | 37 | 100 nM | – | 0.09 | 1080 nM | 2 | –
COc1cc(OC)c(CC=C(C)C)c(-c2cc3ccc(O)cc3o2)c1CC=C(C)C [LAKOOCHIN A] | – | 13900 nM | – | 0.5 | 27400 nM | – | –
COc1cc(O)c(CC=C(C)C)c(-c2cc3ccc(O)cc3o2)c1C/C=C(\C)CCC=C(C)C | < 10 | 630 nM | inactive | – | – | – | –
COc1ccc2cc(-c3cc(OC)c4c(c3CC=C(C)C)OC(C)(CCC=C(C)C)C=C4)oc2c1 (centres undefined) | – | – | inactive | – | – | – | inactive
Oc1cc(O)c2c(c1)O[C@H](c1ccc(O)c(O)c1)[C@@H](O)C2 | – | – | inactive | – | – | – | inactive
COc1cc(OC)c(C/C=C(\C)CCC=C(C)C)c(-c2cc3ccc(O)cc3o2)c1CC=C(C)C | – | – | inactive | – | – | – | inactive
